Article PMC2586329 (Biochemistry, 2008)
Where two headings read alike, the source gives them in different places.

Experiments:
ferric EcDosH = ferric EcDosH (Escherichia coli, UniProt P76129)
full-length EcDos = settings: pH 8; cited from earlier work
ferrous EcDosH = settings: cited from earlier work
EcDos = settings: cited from earlier work
EcDosH = settings: cited from earlier work

ferric EcDosH, sequence (P76129 1-139): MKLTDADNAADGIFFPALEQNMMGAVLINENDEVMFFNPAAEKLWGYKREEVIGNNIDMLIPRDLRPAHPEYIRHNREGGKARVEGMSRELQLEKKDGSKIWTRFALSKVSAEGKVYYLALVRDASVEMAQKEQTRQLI

OO [H2O2, hydrogen peroxide]
effect on the heme at high hydrogen peroxide concentrations (ferric EcDosH): oxidative degradation of the heme is observed

O=O [O2]
association rate constant (full-length EcDos): 1900 M⁻¹ s⁻¹ | association rate constant (ferrous EcDosH; pH 7): 2600 M⁻¹ s⁻¹ | association rate constant (ferrous EcDosH; pH 8): 31000 M⁻¹ s⁻¹

[C-]#[O+] [CO]
association rate constant (full-length EcDos): 810 M⁻¹ s⁻¹ | association rate constant (ferrous EcDosH; pH 7): 1100 M⁻¹ s⁻¹ | association rate constant (ferrous EcDosH; pH 8): 7800 M⁻¹ s⁻¹

c1c[nH]cn1 [imidazole]
affinity for binding (EcDos): very low affinities | affinity for binding (EcDosH): very low affinities

F [fluoride]
affinity for binding (EcDos): very low affinities | affinity for binding (EcDosH): very low affinities

[N-]=[N+]=[N-] [azide]
affinity for binding (EcDos): very low affinities | affinity for binding (EcDosH): very low affinities
